In ChEMBL document CHEMBL3727343, “Agent for inhibiting odor of pyrazine derivatives” (2013):
Calls of active or inactive are those of the source. The rule behind the calls is not given here.

Experiments:
[1] = target: T1, Olfactory receptor 5K1 (Homo sapiens) (UniProt Q8NHB7); assay: Antagonist activity at human OR5K1 expressed in HEK293 cells assessed as inhibition of 2,6-dimethylpyrazine-induced response at 100 uM by luciferase reporter gene assay; format: functional, cell-based
T1 sequence (whole entry): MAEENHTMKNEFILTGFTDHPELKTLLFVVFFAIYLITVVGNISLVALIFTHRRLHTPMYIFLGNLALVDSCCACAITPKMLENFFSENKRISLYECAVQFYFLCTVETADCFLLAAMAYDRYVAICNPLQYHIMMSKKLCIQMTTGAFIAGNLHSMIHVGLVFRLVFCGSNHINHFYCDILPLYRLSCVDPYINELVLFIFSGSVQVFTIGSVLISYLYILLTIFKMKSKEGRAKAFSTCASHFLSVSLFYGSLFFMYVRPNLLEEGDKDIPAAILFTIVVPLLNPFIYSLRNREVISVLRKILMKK

Homo sapiens = organism: Homo sapiens; assay: Inhibition of 2,6-dimethylpyrazine-induced odor assessed as strength of odor on cloth smelled by subjects; format: functional, organism-based

SMILES	inhibition [1] [%]	inhibition (Homo sapiens)
CC(=O)c1cc(C(C)(C)C)cc2c1CCC2(C)C	> 40	–
CC(C=O)Cc1ccc(C(C)(C)C)cc1 (configuration not stated)	> 50	Active
CC(C)=CCCC(C)CC=O (configuration not stated)	> 50	–
C=CCc1ccc(O)c(OC)c1	> 40	–
CCC(O)COC1CCCCC1C(C)(C)C (configuration not stated)	> 75	Active
CCCCCCCC1CCC(=O)O1 (configuration not stated)	> 50	Active
CC/C=C(\C)C(O)CCCCC (configuration not stated)	> 75	Active
CC1=CCC(C/C=C(\C)CO)C1(C)C (configuration not stated)	> 50	Active
CCCCCC/C(C=O)=C\c1ccccc1	> 50	–
CC(=O)c1c(C)c([N+](=O)[O-])c(C(C)(C)C)c([N+](=O)[O-])c1C	> 40	–
C=CCCC(=O)C1=CCCC(C)(C)C1	> 40	Active
CC1=CC(C)C(C)C(C=O)C1 (configuration not stated)	> 40	–
CC(=O)O[C@]1(C)CC[C@H]2C(C)(C)[C@@H]3C[C@@]21CC[C@H]3C	> 50	–
C/C=C/c1ccc(OCc2ccccc2)c(OC)c1	> 50	–
O=C1CCCCC/C=C\CCCCCCCCO1	> 50	–
CC(=O)C1=C(C)[C@@H]2C[C@@]3(C1)[C@H](C)CC[C@H]3C2(C)C	> 50	–
CC(=O)C1(C)CC2=C(CCCC2(C)C)CC1C (configuration not stated)	> 75	–
CC(C=O)Cc1ccc2c(c1)OCO2 (configuration not stated)	> 40	Active
CCOCOC1CCCCCCCCCCC1	> 50	–
CC(C)=CCC/C(C)=C/C=O	> 75	–
O=C/C=C/c1ccccc1	> 50	–
CC(=O)/C(C)=C/C1C(C)=CCCC1(C)C (configuration not stated)	> 50	Active
CC(C)[C@@H]1CC[C@@H](C)C[C@H]1O	> 50	–
CC(C=O)c1ccccc1 (configuration not stated)	> 50	–
CC(=O)c1cc2c(cc1C)C(C)(C)C(C)CC2(C)C (configuration not stated)	> 75	–
CCCCCC1=C(C)CCC1=O	> 40	–
CC1=CC(O)CC(C)C2CC(=C(C)C)CC12 (configuration not stated)	> 75	–

SMILES	inhibition [1] [%]	inhibition (Homo sapiens)
C[C@@H]1[C@@H]2C(=O)C[C@H]3[C@@H]2C(C)(C)CCC[C@]13C	> 75	–
CC1(C)CCCC2(C)C1CCC1(C)OCCC12 (configuration not stated)	> 50	–
CC1C/C=C/CCCCCCCCCC(=O)C1 (configuration not stated)	> 50	Active
CCCCC/C(C=O)=C\c1ccccc1	> 75	–
CC(=O)/C=C/C1=C(C)CCCC1(C)C	> 75	Active
CC12CCC(C3(CCCC3)C1=O)C2(C)C (configuration not stated)	> 50	–
CO[C@]1(C)CC[C@H]2C(C)(C)[C@@H]3C[C@@]21CC[C@H]3C	> 50	–
CC(C)=CCCC(C)CCOCC=O (configuration not stated)	> 40	–
C/C=C/C(=O)C1=C(C)C=CCC1(C)C	> 40	Active
CC/C(=C\CC1CC=C(C)C1(C)C)CO (configuration not stated)	> 75	–
O=C(OCCc1ccccc1)c1ccccc1O	> 75	–
OCCCCCCc1ccccc1	> 40	–
CC1=CC(C)C(C=O)CC1 (configuration not stated)	> 40	Active
CC(C=O)C1CCCCC1 (configuration not stated)	> 50	–
C=C(OCC)C1C(C)(C)CC(=O)CC1(C)C	> 50	–
CC(C)[C@H]1CC[C@@H](CO)CC1	> 40	–
CC(C)=CCC/C(C)=C/CO	> 40	Active
O=C1CCCCCCCCCCCCCCO1	> 40	–
CCCCCCOC(=O)c1ccccc1O	> 40	–
O=C1CCCCCCCCCCCC(=O)OCCO1	> 40	–
CC(=O)c1ccc2ccccc2c1	> 50	Active
Cc1ccc(C(C)C)c(O)c1	> 75	–
CC(C)CCCC(C)CCO (configuration not stated)	> 50	–
CC(C=O)Cc1ccc(C(C)C)cc1 (configuration not stated)	> 75	–
C[C@@H]1CCCCCCCCCCCCC(=O)C1	> 50	–
CC1=CCC(C(C)CC2CCCC2=O)CC1 (configuration not stated)	> 50	–
